In ChEMBL document CHEMBL3885861, “Open TG-GATES”:

Organism: Rattus norvegicus
Test: Open TG-GATES - Regimen: Single
Assay type: toxicity, organism-based, Sprague-Dawley
Parameters: regimen Single, gender Male, age 6 weeks
Conditions: in vivo, po, 0 mg/kg, route gavage, dose level Control; for APTT / Bas / Eos / Fbg / Hb / Ht / Lym / MCH / MCHC / MCV / Mono / Neu / PT / Plat / RBC / Ret / WBC: tissue Blood; for KIDNEY_L / KIDNEY_R / KIDNEY_TOTAL: tissue Kidney; for LIVER: tissue Liver; for A/G / ALP / ALT / AST / BUN / CRE / Ca / Cl / DBIL / GLC / IP / K / LDH / Na / PL / RALB / TBIL / TC / TG / TP / gamma-GTP: tissue Plasma

Q: Which TERMINAL_BW (3 h) does the source give for O=NN(CCCl)C(=O)NC1CCCCC1 [LOMUSTINE] here?
A: 205.6 g

Q: What about the APTT (3 h) of the same compound?
A: 16.5 s

Q: What about the Bas (3 h) of the same compound?
A: 0%

Q: And the Eos (3 h)?
A: 0.6%

Q: And the Fbg (3 h)?
A: 207.8 mg/dL

Q: And the Hb (3 h)?
A: 13 g/dL

Q: What about the Ht (3 h) of the same compound?
A: 39.5%

Q: And the Lym (3 h)?
A: 82%

Q: And the MCH (3 h)?
A: 21.7 pg

Q: What about the MCHC (3 h) of the same compound?
A: 32.9%

Q: What about the MCV (3 h) of the same compound?
A: 66 fL

Q: And the Mono (3 h)?
A: 6.4%

Q: And the Neu (3 h)?
A: 11.2%

Q: What about the PT (3 h) of the same compound?
A: 11 s

Q: What about the Plat (3 h) of the same compound?
A: 100.4 x10_4/uL

Q: What about the RBC (3 h) of the same compound?
A: 599.2 x10_4/ul

Q: What about the Ret (3 h) of the same compound?
A: 8.5%

Q: And the WBC (3 h)?
A: 134.2 x10_2/uL

Q: And the KIDNEY_L (3 h)?
A: 0.9 g

Q: And the KIDNEY_R (3 h)?
A: 0.9 g

Q: And the KIDNEY_TOTAL (3 h)?
A: 1.9 g

Q: What about the LIVER (3 h) of the same compound?
A: 10 g

Q: And the A/G (3 h)?
A: 2

Q: And the ALP (3 h)?
A: 881.4 IU/L

Q: And the ALT (3 h)?
A: 36.4 IU/L

Q: And the AST (3 h)?
A: 66.4 IU/L

Q: What about the BUN (3 h) of the same compound?
A: 14.6 mg/dL

Q: And the CRE (3 h)?
A: 0.6 mg/dL

Q: What about the Ca (3 h) of the same compound?
A: 11.3 mg/dL

Q: And the Cl (3 h)?
A: 106.4 meq/L

Q: What about the DBIL (3 h) of the same compound?
A: 0.072 mg/dL

Q: What about the GLC (3 h) of the same compound?
A: 187 mg/dL

Q: And the IP (3 h)?
A: 9.5 mg/dL

Q: What about the K (3 h) of the same compound?
A: 5 meq/L

Q: And the LDH (3 h)?
A: 89.6 IU/L

Q: And the Na (3 h)?
A: 139.8 meq/L

Q: And the PL (3 h)?
A: 134.4 mg/dL

Q: What about the RALB (3 h) of the same compound?
A: 3.7 g/dL

Q: And the TBIL (3 h)?
A: 0.3 mg/dL

Q: And the TC (3 h)?
A: 76.4 mg/dL

Q: What about the TG (3 h) of the same compound?
A: 50.2 mg/dL

Q: And the TP (3 h)?
A: 5.6 g/dL

Q: And the gamma-GTP (3 h)?
A: 1.4 IU/L

Q: What about the TERMINAL_BW (6 h) of the same compound?
A: 200.9 g

Q: What about the APTT (6 h) of the same compound?
A: 17.4 s

Q: And the Bas (6 h)?
A: 0%

Q: What about the Eos (6 h) of the same compound?
A: 0.6%

Q: And the Fbg (6 h)?
A: 218.2 mg/dL

Q: And the Hb (6 h)?
A: 13.6 g/dL

Q: What about the Ht (6 h) of the same compound?
A: 41.3%

Q: And the Lym (6 h)?
A: 72%

Q: And the MCH (6 h)?
A: 22 pg

Q: What about the MCHC (6 h) of the same compound?
A: 32.9%

Q: What about the MCV (6 h) of the same compound?
A: 66.7 fL

Q: What about the Mono (6 h) of the same compound?
A: 6.6%

Q: What about the Neu (6 h) of the same compound?
A: 20.6%

Q: What about the PT (6 h) of the same compound?
A: 12.2 s

Q: What about the Plat (6 h) of the same compound?
A: 106.2 x10_4/uL

Q: And the RBC (6 h)?
A: 619.2 x10_4/ul

Q: What about the Ret (6 h) of the same compound?
A: 8.9%

Q: What about the WBC (6 h) of the same compound?
A: 71.6 x10_2/uL

Q: What about the KIDNEY_L (6 h) of the same compound?
A: 1 g

Q: What about the KIDNEY_R (6 h) of the same compound?
A: 1 g

Q: What about the KIDNEY_TOTAL (6 h) of the same compound?
A: 2 g

Q: What about the LIVER (6 h) of the same compound?
A: 9.4 g

Q: What about the A/G (6 h) of the same compound?
A: 2

Q: What about the ALP (6 h) of the same compound?
A: 849.6 IU/L

Q: What about the ALT (6 h) of the same compound?
A: 28.2 IU/L

Q: And the AST (6 h)?
A: 66 IU/L

Q: What about the BUN (6 h) of the same compound?
A: 10.2 mg/dL

Q: What about the CRE (6 h) of the same compound?
A: 0.5 mg/dL

Q: And the Ca (6 h)?
A: 11.1 mg/dL

Q: What about the Cl (6 h) of the same compound?
A: 103.4 meq/L

Q: And the DBIL (6 h)?
A: 0.01 mg/dL

Q: What about the GLC (6 h) of the same compound?
A: 189.6 mg/dL

Q: What about the IP (6 h) of the same compound?
A: 11.2 mg/dL

Q: What about the K (6 h) of the same compound?
A: 5.6 meq/L

Q: What about the LDH (6 h) of the same compound?
A: 116.4 IU/L

Q: What about the Na (6 h) of the same compound?
A: 141.2 meq/L

Q: What about the PL (6 h) of the same compound?
A: 141.6 mg/dL

Q: And the RALB (6 h)?
A: 3.7 g/dL

Q: And the TBIL (6 h)?
A: 0.3 mg/dL

Q: And the TC (6 h)?
A: 78.8 mg/dL

Q: And the TG (6 h)?
A: 50.6 mg/dL

Q: What about the TP (6 h) of the same compound?
A: 5.7 g/dL

Q: And the gamma-GTP (6 h)?
A: 1 IU/L

Q: What about the TERMINAL_BW (9 h) of the same compound?
A: 199.9 g

Q: And the APTT (9 h)?
A: 16.9 s

Q: And the Bas (9 h)?
A: 0%

Q: What about the Eos (9 h) of the same compound?
A: 0.8%

Q: And the Fbg (9 h)?
A: 213.2 mg/dL

Q: And the Hb (9 h)?
A: 13.1 g/dL

Q: And the Ht (9 h)?
A: 40.2%

Q: What about the Lym (9 h) of the same compound?
A: 79.4%

Q: What about the MCH (9 h) of the same compound?
A: 21.7 pg

Q: And the MCHC (9 h)?
A: 32.6%

Q: What about the MCV (9 h) of the same compound?
A: 66.4 fL

Q: And the Mono (9 h)?
A: 6.2%

Q: What about the Neu (9 h) of the same compound?
A: 14%

Q: And the PT (9 h)?
A: 12.5 s

Q: What about the Plat (9 h) of the same compound?
A: 107.9 x10_4/uL

Q: And the RBC (9 h)?
A: 606.2 x10_4/ul

Q: And the Ret (9 h)?
A: 8.8%

Q: And the WBC (9 h)?
A: 91.5 x10_2/uL

Q: What about the KIDNEY_L (9 h) of the same compound?
A: 0.9 g

Q: What about the KIDNEY_R (9 h) of the same compound?
A: 0.9 g

Q: And the KIDNEY_TOTAL (9 h)?
A: 1.8 g

Q: And the LIVER (9 h)?
A: 8.5 g

Q: What about the A/G (9 h) of the same compound?
A: 2.4

Q: And the ALP (9 h)?
A: 985 IU/L

Q: What about the ALT (9 h) of the same compound?
A: 28 IU/L

Q: And the AST (9 h)?
A: 55.8 IU/L

Q: And the BUN (9 h)?
A: 10.8 mg/dL

Q: What about the CRE (9 h) of the same compound?
A: 0.5 mg/dL

Q: And the Ca (9 h)?
A: 10.8 mg/dL

Q: What about the Cl (9 h) of the same compound?
A: 105.6 meq/L

Q: And the DBIL (9 h)?
A: 0.072 mg/dL

Q: What about the GLC (9 h) of the same compound?
A: 193.6 mg/dL

Q: And the IP (9 h)?
A: 11 mg/dL

Q: And the K (9 h)?
A: 4.8 meq/L

Q: And the LDH (9 h)?
A: 101 IU/L

Q: And the Na (9 h)?
A: 139 meq/L

Q: And the PL (9 h)?
A: 120.8 mg/dL

Q: And the RALB (9 h)?
A: 3.9 g/dL

Q: And the TBIL (9 h)?
A: 0.3 mg/dL

Q: And the TC (9 h)?
A: 67.2 mg/dL

Q: What about the TG (9 h) of the same compound?
A: 43.2 mg/dL

Q: What about the TP (9 h) of the same compound?
A: 5.6 g/dL

Q: And the gamma-GTP (9 h)?
A: 1.4 IU/L

Q: What about the TERMINAL_BW (24 h) of the same compound?
A: 218.2 g

Q: What about the APTT (24 h) of the same compound?
A: 16 s

Q: And the Bas (24 h)?
A: 0%

Q: What about the Eos (24 h) of the same compound?
A: 0.4%

Q: What about the Fbg (24 h) of the same compound?
A: 225 mg/dL

Q: What about the Hb (24 h) of the same compound?
A: 13 g/dL

Q: What about the Ht (24 h) of the same compound?
A: 38.8%

Q: What about the Lym (24 h) of the same compound?
A: 80.4%

Q: And the MCH (24 h)?
A: 22.5 pg

Q: And the MCHC (24 h)?
A: 33.5%

Q: And the MCV (24 h)?
A: 67.2 fL

Q: And the Mono (24 h)?
A: 6.4%

Q: What about the Neu (24 h) of the same compound?
A: 12.4%

Q: What about the PT (24 h) of the same compound?
A: 11.9 s

Q: And the Plat (24 h)?
A: 100.3 x10_4/uL

Q: What about the RBC (24 h) of the same compound?
A: 578.2 x10_4/ul

Q: What about the Ret (24 h) of the same compound?
A: 8.8%

Q: What about the WBC (24 h) of the same compound?
A: 130.7 x10_2/uL

Q: What about the KIDNEY_L (24 h) of the same compound?
A: 1 g

Q: And the KIDNEY_R (24 h)?
A: 1 g

Q: And the KIDNEY_TOTAL (24 h)?
A: 2 g

Q: What about the LIVER (24 h) of the same compound?
A: 11.5 g

Q: What about the A/G (24 h) of the same compound?
A: 2.1

Q: And the ALP (24 h)?
A: 991.8 IU/L

Q: What about the ALT (24 h) of the same compound?
A: 35 IU/L

Q: What about the AST (24 h) of the same compound?
A: 63.6 IU/L

Q: What about the BUN (24 h) of the same compound?
A: 19.2 mg/dL

Q: What about the CRE (24 h) of the same compound?
A: 0.5 mg/dL

Q: And the Ca (24 h)?
A: 11.3 mg/dL

Q: And the Cl (24 h)?
A: 104.8 meq/L

Q: And the DBIL (24 h)?
A: 0.018 mg/dL

Q: What about the GLC (24 h) of the same compound?
A: 203.8 mg/dL

Q: What about the IP (24 h) of the same compound?
A: 8.4 mg/dL

Q: What about the K (24 h) of the same compound?
A: 5.4 meq/L

Q: What about the LDH (24 h) of the same compound?
A: 130.2 IU/L

Q: What about the Na (24 h) of the same compound?
A: 138.2 meq/L

Q: What about the PL (24 h) of the same compound?
A: 146.6 mg/dL

Q: And the RALB (24 h)?
A: 3.9 g/dL

Q: And the TBIL (24 h)?
A: 0.4 mg/dL

Q: And the TC (24 h)?
A: 79.8 mg/dL

Q: What about the TG (24 h) of the same compound?
A: 96.6 mg/dL

Q: And the TP (24 h)?
A: 5.8 g/dL

Q: And the gamma-GTP (24 h)?
A: 1.4 IU/L
